One assay has as its target T1, human CYP11B1 (Homo sapiens, UniProt P15538).
T1 construct: expressed in transfected cells
T1 sequence (P15538 25-503): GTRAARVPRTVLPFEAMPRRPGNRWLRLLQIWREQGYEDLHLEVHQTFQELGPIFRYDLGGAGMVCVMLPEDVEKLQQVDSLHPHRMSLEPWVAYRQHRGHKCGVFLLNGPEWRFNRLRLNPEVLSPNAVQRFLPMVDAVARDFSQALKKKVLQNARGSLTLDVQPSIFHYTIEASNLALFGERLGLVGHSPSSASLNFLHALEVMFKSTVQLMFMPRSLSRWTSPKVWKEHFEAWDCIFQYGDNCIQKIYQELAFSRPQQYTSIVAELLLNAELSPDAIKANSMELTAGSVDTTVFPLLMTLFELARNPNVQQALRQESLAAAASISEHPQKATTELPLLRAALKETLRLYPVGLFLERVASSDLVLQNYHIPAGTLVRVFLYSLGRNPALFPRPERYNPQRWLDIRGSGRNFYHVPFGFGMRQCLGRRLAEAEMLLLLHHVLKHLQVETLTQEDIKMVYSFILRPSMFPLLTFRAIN
Kind of assay: Inhibition of hCYP11B1 in transfected V79 cells. Particulars: hamster V79 cells expressing human CYP11B1; substrate 11-deoxycortisol 200 nM. The assay is classed as cell-based. Here is the method:
(§1) Genes of human CYP11B1 and rat NADPH-P450 reductase were transfected into hamster V79 cells using a lentivirus vector, and stably-expressing cell lines were selected by taking advantages of the associated puromycin-resistance gene. Cultured cells were diluted and seeded in a 96-well plate with an amount of approximately 10,000 per well. After pre-incubation with suitable concentrations of the test compounds for 2 hours, 11-deoxycortisol of 200 nM was added as the substrate to initiate the catalytic reaction. After further incubation for 30 minutes, it was quenched with ethyl acetate. Subsequently, the substrate and product(s) were quantified using LC-MS/MS or HPLC at 260 nm, and the IC50 values were calculated according to inhibitory percentage.

A further assay addresses T2, human CYP11B2 (Homo sapiens, UniProt P19099).
T2 construct: expressed in transfected cells
T2 sequence (P19099 25-503): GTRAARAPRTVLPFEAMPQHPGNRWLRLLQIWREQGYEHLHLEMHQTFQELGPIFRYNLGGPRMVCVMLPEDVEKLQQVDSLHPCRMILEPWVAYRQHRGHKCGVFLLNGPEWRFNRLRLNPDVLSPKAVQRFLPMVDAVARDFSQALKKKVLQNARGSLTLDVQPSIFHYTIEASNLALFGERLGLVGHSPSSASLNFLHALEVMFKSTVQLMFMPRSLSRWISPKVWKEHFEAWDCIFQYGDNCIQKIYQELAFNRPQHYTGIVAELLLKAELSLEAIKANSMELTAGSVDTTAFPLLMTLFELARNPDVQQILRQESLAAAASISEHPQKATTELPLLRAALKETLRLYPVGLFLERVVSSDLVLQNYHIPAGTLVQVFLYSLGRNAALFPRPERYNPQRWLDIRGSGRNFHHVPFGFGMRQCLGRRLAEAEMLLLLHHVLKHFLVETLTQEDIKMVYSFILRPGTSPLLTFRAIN
Kind of assay: Inhibition of hCYP11B2 in transfected V79 cells. Type of assay: cell-based. Particulars: hamster V79 cells expressing human CYP11B2; substrate 11-deoxycorticosterone 200 nM. Here is the method:
as §1, with “CYP11B2” for “CYP11B1”, “11-deoxycorticosterone” for “11-deoxycortisol”

Experimental findings from patent US20260092074A1, “Annelated Pyridines as Steroidogenesis Inhibitors, Preparation Method and Use Thereof” (Guangzhou Vinnocent Pharmaceutical Limited, priority 2022, published 2026) are described below.

Where only a bound is given, the exact number is not on record here.

Consider `N#Cc1cccc(-c2cncc3c2CCN3C(=O)c2ccccc2F)c1` [C55, 3-(1-(2-Fluorobenzoyl)-2,3-dihydro-1H-pyrrolo[2,3-c]pyridin-4-yl)benzonitrile], for which the IC50 was determined as 0.973 µM against human CYP11B1 and 0.029 µM against human CYP11B2.
Take `O=C(c1ccccc1F)N1CCc2c(-c3ccoc3)cncc21` [C56, (2-Fluorophenyl)(4-(furan-3-yl)-2,3-dihydro-1H-pyrrolo[2,3-c]pyridin-1-yl)methanone]: the IC50 on human CYP11B1 was 0.522 µM; on human CYP11B2, 0.103 µM.
`O=C(c1ccccc1F)N1CCc2c(-c3ccc4nccn4c3)cncc21` [C57, (2-Fluorophenyl)(4-(imidazo[1,2-a]pyridin-6-yl)-2,3-dihydro-1H-pyrrolo[2,3-c]pyridin-1-yl)methanone]: the half-inhibitory concentration (IC50) at human CYP11B1 was 0.876 µM; on human CYP11B2 it was 0.027 µM.
As for `O=C(c1ccccc1F)N1CCc2c(-c3ccc4ncsc4c3)cncc21` [C58, (4-(benzo[d]thiazol-6-yl)-2,3-dihydro-1H-pyrrolo[2,3-c]pyridin-1-yl)(2-fluorophenyl)methanone], the results for the IC50 on human CYP11B1 and on human CYP11B2 were 2.64 µM and 0.075 µM, respectively.
Consider `O=C(c1ccccc1F)N1CCc2c(-c3cc4ccccc4[nH]3)cncc21` [C59, (4-(1H-indol-2-yl)-2,3-dihydro-1H-pyrrolo[2,3-c]pyridin-1-yl)(2-fluorophenyl)methanone], for which the IC50 against human CYP11B1 was determined as 2.74 µM; against human CYP11B2, 0.131 µM.
The matching figures for `O=C(c1ccccc1F)N1CCc2c(-c3cc4ccccc4o3)cncc21` [C60, (4-(Benzofuran-2-yl)-2,3-dihydro-1H-pyrrolo[2,3-c]pyridin-1-yl)(2-fluorophenyl)methanone]: > 10 µM and 0.152 µM.
In the same order, the values of `O=C(c1ccccc1F)N1CCc2c(-c3cc4ccccc4s3)cncc21` [C61, (4-(Benzo[b]thiophen-2-yl)-2,3-dihydro-1H-pyrrolo[2,3-c]pyridin-1-yl)(2-fluorophenyl)methanone] are 1.35 µM and 0.216 µM.
The matching figures for `O=C(c1ccccc1F)N1CCc2c(-c3ccc4[nH]ccc4c3)cncc21` [C62, (4-(1H-indol-5-yl)-2,3-dihydro-1H-pyrrolo[2,3-c]pyridin-1-yl)(2-fluorophenyl)methanone]: 0.512 µM and 0.03 µM.
In the case of `O=C(c1ccccc1F)N1CCc2c(-c3ccc4occc4c3)cncc21` [C63, (4-(Benzofuran-5-yl)-2,3-dihydro-1H-pyrrolo[2,3-c]pyridin-1-yl)(2-fluorophenyl)methanone], the half-inhibitory concentration (IC50) is 1.82 µM against human CYP11B1 and 0.113 µM on human CYP11B2.
The matching figures for `Cc1ccccc1CC(=O)N1CCc2c(-c3ccc(C#N)cc3)cncc21` [C64, 4-(1-(2-(o-Tolyl)acetyl)-2,3-dihydro-1H-pyrrolo[2,3-c]pyridin-4-yl)benzonitrile]: 0.258 µM and 0.0053 µM.
In the same order, the values of `N#Cc1ccc(-c2cncc3c2CCN3C(=O)Cc2ccccc2Br)cc1` [C65, 4-(1-(2-(2-Bromophenyl)acetyl)-2,3-dihydro-1H-pyrrolo[2,3-c]pyridin-4-yl)benzonitrile] are 0.292 µM and 0.0076 µM.
The matching figures for `Cc1cccc(CC(=O)N2CCc3c(-c4ccc(C#N)cc4)cncc32)c1` [C66, 4-(1-(2-(m-Tolyl)acetyl)-2,3-dihydro-1H-pyrrolo[2,3-c]pyridin-4-yl)benzonitrile]: 0.092 µM and 0.0009 µM.
As for `N#Cc1ccc(-c2cncc3c2CCN3C(=O)Cc2ccccc2F)cc1` [C67, 4-(1-(2-(2-Fluorophenyl)acetyl)-2,3-dihydro-1H-pyrrolo[2,3-c]pyridin-4-yl)benzonitrile], the IC50 turned out to be 0.277 µM against human CYP11B1 and 0.0065 µM against human CYP11B2.
The matching figures for `COc1cccc(CC(=O)N2CCc3c(-c4ccc(C#N)cc4)cncc32)c1` [C68, 4-(1-(2-(3-Bethoxyphenyl)acetyl)-2,3-dihydro-1H-pyrrolo[2,3-c]pyridin-4-yl)benzonitrile]: 0.026 µM and 0.0007 µM.
The matching figures for `N#Cc1ccc(-c2cncc3c2CCN3C(=O)Cc2ccc(F)cc2)cc1` [C69, 4-(1-(2-(4-Fluorophenyl)acetyl)-2,3-dihydro-1H-pyrrolo[2,3-c]pyridin-4-yl)benzonitrile]: 0.134 µM and 0.0024 µM.
In the same order, the values of `N#Cc1ccc(-c2cncc3c2CCN3C(=O)Cc2ccccc2[N+](=O)[O-])cc1` [C70, 4-(1-(2-(2-Nitrophenyl)acetyl)-2,3-dihydro-1H-pyrrolo[2,3-c]pyridin-4-yl)benzonitrile] are 0.108 µM and 0.012 µM.
In the case of `N#Cc1ccc(-c2cncc3c2CCN3C(=O)Cc2cccc(Cl)c2)cc1` [C71, 4-(1-(2-(3-Chlorophenyl)acetyl)-2,3-dihydro-1H-pyrrolo[2,3-c]pyridin-4-yl)benzonitrile], the IC50 stood at 0.028 µM against human CYP11B1 and 0.002 µM against human CYP11B2.
The matching figures for `Cc1ccc(CC(=O)N2CCc3c(-c4ccc(C#N)cc4)cncc32)cc1` [C72, 4-(1-(2-(p-Tolyl)acetyl)-2,3-dihydro-1H-pyrrolo[2,3-c]pyridin-4-yl)benzonitrile]: 0.051 µM and 0.0068 µM.
In the same order, the values of `N#Cc1ccc(-c2cncc3c2CCN3C(=O)Cc2ccc(Br)cc2)cc1` [C73, 4-(1-(2-(4-Bromophenyl)acetyl)-2,3-dihydro-1H-pyrrolo[2,3-c]pyridin-4-yl)benzonitrile] are 0.124 µM and 0.011 µM.
The matching figures for `N#Cc1ccc(-c2cncc3c2CCN3C(=O)Cc2cccc(C(F)(F)F)c2)cc1` [C74, 4-(1-(2-(3-(Trifluoromethyl)phenyl)acetyl)-2,3-dihydro-1H-pyrrolo[2,3-c]pyridin-4-yl)benzonitrile]: 0.053 µM and 0.009 µM.
For `N#Cc1ccc(-c2cncc3c2CCN3C(=O)Cc2ccc(C(F)(F)F)cc2)cc1` [C75, 4-(1-(2-(4-(Trifluoromethyl)phenyl)acetyl)-2,3-dihydro-1H-pyrrolo[2,3-c]pyridin-4-yl)benzonitrile], the figures for the half-inhibitory concentration (IC50) against human CYP11B1 and at human CYP11B2 were 0.111 µM and 0.035 µM, respectively.
The matching figures for `COc1ccc(CC(=O)N2CCc3c(-c4ccc(C#N)cc4)cncc32)cc1` [C76, 4-(1-(2-(4-Methoxyphenyl)acetyl)-2,3-dihydro-1H-pyrrolo[2,3-c]pyridin-4-yl)benzonitrile]: 0.062 µM and 0.009 µM.
In the same order, the values of `N#Cc1ccc(-c2cncc3c2CCN3C(=O)Cc2ccc(Cl)cc2)cc1` [C77, 4-(1-(2-(4-Chlorophenyl)acetyl)-2,3-dihydro-1H-pyrrolo[2,3-c]pyridin-4-yl)benzonitrile] are 0.376 µM and 0.008 µM.
In the same order, the values of `COc1ccc(C(=O)N2CCc3c(-c4cc5cc(C#N)ccc5o4)cncc32)cc1` [C79, 2-(1-(4-Methoxybenzoyl)-2,3-dihydro-1H-pyrrolo[2,3-c]pyridin-4-yl)benzofuran-5-carbo nitrile] are 2.95 µM and 0.046 µM.
On to `O=C(C1CN(Cc2cccc(F)c2)C1)N1CCc2c(-c3cc4cc(Cl)ccc4[nH]3)cncc21` [C80, (4-(5-Chloro-1H-indol-2-yl)-2,3-dihydro-1H-pyrrolo[2,3-c]pyridin-1-yl)(1-(3-fluorobenzyl)azetidin-3-yl)methanone], for which the results for the IC50 at human CYP11B1 and against human CYP11B2 were 0.476 µM and 0.022 µM, respectively.
The matching figures for `N#Cc1ccc2[nH]c(-c3cncc4c3CCN4C(=O)C3CN(Cc4cccc(F)c4)C3)cc2c1` [C81, 2-(1-(1-(3-Fluorobenzyl)azetidine-3-carbonyl)-2,3-dihydro-1H-pyrrolo[2,3-c]pyridin-4-yl)-1H-indole-5-carbonitrile]: 0.438 µM and 0.015 µM.
